Structures can show the parent of a compound that is named as a salt.
Target: CK2A1 (CK2α/β) (Homo sapiens, UniProt P68400)
Assay: CK2 kinase assay, CK2A1 (CK2α/β)
Assay type: biochemical
Details: Table A; read-out: CK2A1 (CK2α/β) (IC50)

Sequence of CK2A1 (CK2α/β) (P68400 whole entry, species assumed): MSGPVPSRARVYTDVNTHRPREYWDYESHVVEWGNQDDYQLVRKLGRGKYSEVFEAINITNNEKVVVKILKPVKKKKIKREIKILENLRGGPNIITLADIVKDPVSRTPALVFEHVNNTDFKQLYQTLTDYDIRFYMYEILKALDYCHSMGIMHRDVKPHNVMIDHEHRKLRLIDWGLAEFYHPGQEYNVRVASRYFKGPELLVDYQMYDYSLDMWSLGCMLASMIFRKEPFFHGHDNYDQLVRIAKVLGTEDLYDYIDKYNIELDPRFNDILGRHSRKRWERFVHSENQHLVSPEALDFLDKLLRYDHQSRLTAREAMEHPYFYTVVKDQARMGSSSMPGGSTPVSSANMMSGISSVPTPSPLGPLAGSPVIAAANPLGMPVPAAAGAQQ
Sequence of CK2A1 (CK2α/β) (P67870 whole entry partner, species assumed): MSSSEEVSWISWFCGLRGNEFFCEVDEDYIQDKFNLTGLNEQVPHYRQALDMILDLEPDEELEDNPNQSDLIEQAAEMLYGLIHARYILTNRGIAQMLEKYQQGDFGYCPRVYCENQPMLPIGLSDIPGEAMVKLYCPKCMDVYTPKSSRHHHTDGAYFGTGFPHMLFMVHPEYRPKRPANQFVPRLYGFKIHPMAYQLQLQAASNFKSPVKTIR

| Structure (SMILES) | IC50 |
| --- | --- |
| CN1CCN(C2CN(c3cc(OC(F)F)cc(Nc4nc(NC5CC5)c5ncc(C#N)n5n4)c3Cl)C2)CC1 [Example 405, 2-((2-chloro-5-(difluoromethoxy)-3-(3-(4-methylpiperazin-1-yl)azetidin-1-yl)phenyl)amino)-4-(cyclopropylamino)imidazo[2,1-f][1,2,4]triazine-7-carbonitrile] | 0.48 nM |
| CC(=O)N1CCOC(c2cc(C#N)cc(Nc3nc(NC4CC4)c4ncc(C#N)n4n3)c2Cl)C1 (racemic) [Example 695, (+/−)-2-((3-(4-acetylmorpholin-2-yl)-2-chloro-5-cyanophenyl)amino)-4-(cyclopropylamino)imidazo[2,1-f][1,2,4]triazine-7-carbonitrile] | 3.7 nM |
| CC(Cc1cc(Cl)c(Nc2nc(NC3CC3)c3ncc(C#N)n3n2)cc1C#N)CN1CCOCC1 (stereo not drawn) [Example 721, 2-({2-chloro-5-cyano-4-[2-(morpholin-4-ylmethyl)propyl]phenyl}amino)-4-(cyclopropylamino)imidazo [2,1-f][1,2,4]triazine-7-carbonitrile] | 1.35 nM |
| N#Cc1cc(Nc2nc(NC3CC3)c3ncc(C#N)n3n2)c(Cl)c(OC2CNCCOC2)c1 (racemic) [Example 440, (+/−)-2-((3-((1,4-oxazepan-6-yl)oxy)-2-chloro-5-cyanophenyl)amino)-4-(cyclopropylamino)imidazo[2,1-f][1,2,4]triazine-7-carbonitrile] | 0.88 nM |
| N#Cc1cc(Nc2nc(NC3CC3)c3ncc(C#N)n3n2)c(Cl)c(N2CCC(NC3(CS(=O)(=O)c4ccccc4)COC3)CC2)c1 (racemic) [Example 113, (+/−) 2-((2-chloro-5-cyano-3-(4-((3-((phenylsulfonyl)methyl)-3-oxetanyl)amino)-1-piperidinyl)phenyl)amino)-4-(cyclopropylamino)imidazo [2,1-f][1,2,4]triazine-7-carbonitrile] | 1.01 nM |
| CC(C)(N)C(=O)N1CCC(c2cc(C#N)cc(Nc3nc(NC4CC4)c4ncc(C#N)n4n3)c2Cl)CC1 [Example 239, 2-((2-chloro-5-cyano-3-(1-(2-methylalanyl)-4-piperidinyl)phenyl)amino)-4-(cyclopropylamino)imidazo[2,1-f][1,2,4]triazine-7-carbonitrile] | 0.49 nM |
| N#Cc1cc(Nc2nc(NC3CC3)c3ncc(C#N)n3n2)c(Cl)c(N2CC3CNCC3C2)c1 (stereo not drawn) [Example 455, 2-((2-chloro-5-cyano-3-(hexahydropyrrolo[3,4-c]pyrrol-2(1H)-yl)phenyl)amino)-4-(cyclopropylamino)imidazo[2,1-f][1,2,4]triazine-7-carbonitrile] | 0.49 nM |
| CCOC1CC1C(=O)N1CC(N2CCN(c3cc(C#N)cc(Nc4nc(NC5CC5)c5ncc(C#N)n5n4)c3Cl)CC2)C1 (stereo not drawn) [Example 520, 2-[(2-chloro-5-cyano-3-{4-[1-(2-ethoxycyclopropane-carbonyl)azetidin-3-yl]piperazin-1-yl}phenyl)amino]-4-(cyclopropylamino)imidazo[2,1-f][1,2,4]triazine-7-carbonitrile] | 4.96 nM |
| COC(=O)Nc1cc(Nc2nc(NC3CC3)c3ncc(C#N)n3n2)c(F)c(N2CCN(C)CC2)c1 [Example 385, methyl (3-((7-cyano-4-(cyclopropylamino)imidazo[2,1-f][1,2,4]triazin-2-yl)amino)-4-fluoro-5-(4-methylpiperazin-1-yl)phenyl)carbamate] | 2.22 nM |
| N#Cc1cc(Nc2nc(NC3CC3)c3ncc(C#N)n3n2)c(F)c(N2CCN([C@@H]3CS(=O)(=O)C[C@H]3O)CC2)c1 (racemic) [Example 553, rac-2-((5-cyano-2-fluoro-3-(4-((3R,4R)-4-hydroxy-1,1-dioxidotetrahydrothiophen-3-yl)piperazin-1-yl)phenyl)amino)-4-(cyclopropylamino)imidazo[2,1-f][1,2,4]triazine-7-carbonitrile] | 5.55 nM |
| N#Cc1cc(Nc2nc(NC3CC3)c3ncc(C#N)n3n2)c(F)c(N2CCN(C3CNC3)CC2)c1 [Example 550, 2-((3-(4-(azetidin-3-yl)piperazin-1-yl)-5-cyano-2-fluorophenyl)amino)-4-(cyclopropylamino)imidazo[2,1-f][1,2,4]triazine-7-carbonitrile] | 0.83 nM |
| CS(=O)(=O)NCC1CN(c2cc(C#N)cc(Nc3nc(NC4CC4)c4ncc(C#N)n4n3)c2Cl)CCO1 (racemic) [Example 700, (+/−)-N-((4-(2-chloro-5-cyano-3-((7-cyano-4-(cyclopropylamino)imidazo[2,1-f][1,2,4]triazin-2-yl)amino)phenyl)morpholin-2-yl)methyl)methanesulfonamide] | 0.57 nM |
| CCOC(=O)C1CCN(c2cc(C(F)F)cc(Nc3nc(NC4CC4)c4ncc(C#N)n4n3)c2Cl)CC1 [Example 544, ethyl 1-(2-chloro-3-((7-cyano-4-(cyclopropylamino)imidazo[2,1-f][1,2,4]triazin-2-yl)amino)-5-(difluoromethyl)phenyl)piperidine-4-carboxylate] | 28.2 nM |
| CC(C)(C)CNCc1cc(C#N)cc(Nc2nc(NC3CC3)c3ncc(C#N)n3n2)c1Cl [Example 469, 2-[(2-chloro-5-cyano-3-{[(2,2-dimethylpropyl)amino]methyl}phenyl)amino]-4-(cyclopropylamino)imidazo[2,1-f][1,2,4]triazine-7-carbonitrile] | 1.48 nM |
| N#Cc1cc(Nc2nc(NC3CC3)c3ncc(C#N)n3n2)c(Cl)c(N2CC[C@@H](NC(=O)OCCN3CCOCC3)[C@H](O)C2)c1 [Example 178, 2-morpholinoethyl ((3R,4R)-1-(2-chloro-5-cyano-3-((7-cyano-4-(cyclopropylamino)imidazo[2,1-f][1,2,4]triazin-2-yl)amino)phenyl)-3-hydroxypiperidin-4-yl)carbamate] | 0.77 nM |
| CCNc1nc(Nc2cc(C#N)cc(N3CCN(CC(C)(CO)CO)CC3)c2Cl)nn2c(C#N)cnc12 [Example 604, 2-[(2-chloro-5-cyano-3-{4-[3-hydroxy-2-(hydroxymethyl)-2-methylpropyl]piperazin-1-yl}phenyl)amino]-4-(ethylamino)imidazo[2,1-f][1,2,4]triazine-7-carbonitrile] | 0.99 nM |
| CCNc1nc(Nc2cc(C#N)cc(N3CCN(C4CN(C(C)=O)C4)CC3)c2Cl)nn2c(C#N)cnc12 [Example 605, 2-({3-[4-(1-acetylazetidin-3-yl)piperazin-1-yl]-2-chloro-5-cyanophenyl}amino)-4-(ethylamino)imidazo[2,1-f][1,2,4]triazine-7-carbonitrile] | 0.91 nM |
| N#Cc1cc(Nc2nc(NC3CC3)c3ncc(C#N)n3n2)c(Cl)c([C@H]2CCC[C@@H](N3CC(O)C3)C2)c1 (single isomer, unassigned) [Example 730] | 1.22 nM |
| CC(=O)N1CC(N2CCN(c3cc(C#N)cc(Nc4nc(NC5CC5)c5ncc(C#N)n5n4)c3Cl)CC2)C1 [Example 480, 2-({3-[4-(1-acetylazetidin-3-yl)piperazin-1-yl]-2-chloro-5-cyanophenyl}amino)-4-(cyclopropylamino)imidazo[2,1-f][1,2,4]triazine-7-carbonitrile] | 0.86 nM |

Other lines, results leading:

| IC50 | Structure (SMILES) |
| --- | --- |
| 10 nM | CCNc1nc(Nc2cc(C#N)cc(N3CC[C@@H](NC(=O)OC)[C@@H](NCC(O)C(F)(F)F)C3)c2Cl)nn2c(C#N)cnc12 (stereo partly drawn) [Example 761, methyl N-[(3S,4R)-1-(2-chloro-5-cyano-3-{[7-cyano-4-(ethylamino)imidazo[2,1-f][1,2,4]triazin-2-yl]amino}phenyl)-3-[(3,3,3-trifluoro-2-hydroxypropyl)amino]piperidin-4-yl]carbamate] |
| 0.36 nM | CCNc1nc(Nc2ccc3c(c2)c(C#N)cn3C2CCN([C@H]3CS(=O)(=O)C[C@@H]3O)CC2)nn2c(C#N)cnc12 [Example 828, 2-((3-cyano-1-(1-((3R,4R)-4-hydroxy-1,1-dioxidotetrahydrothiophen-3-yl)piperidin-4-yl)-1H-indol-5-yl)amino)-4-(ethylamino)imidazo[2,1-f][1,2,4]triazine-7-carbonitrile] |
| 2.72 nM | CCNc1nc(Nc2cc(C#N)cc(N3CC[C@@H](NC(=O)OC)[C@H](OC(=O)CNC(=O)[C@H](C)N)C3)c2Cl)nn2c(C#N)cnc12 [Example 821, (3R,4R)-1-(2-chloro-5-cyano-3-((7-cyano-4-(ethylamino)imidazo[2,1-f][1,2,4]triazin-2-yl)amino)phenyl)-4-((methoxycarbonyl)amino)piperidin-3-yl 2-((S)-2-aminopropanamido)acetate hydrochloride] |
| 1.2 nM | CCNc1nc(Nc2cc(C#N)cc(N3CC[C@@H](N4CC(O)C4)[C@H](O)C3)c2Cl)nn2c(C#N)cnc12 (racemic) [Example 776, (+/−)-2-((2-chloro-5-cyano-3-((3R,4R)-3-hydroxy-4-(3-hydroxyazetidin-1-yl)piperidin-1-yl)phenyl)amino)-4-(ethylamino)imidazo[2,1-f][1,2,4]triazine-7-carbonitrile] |
| 1.74 nM | CCNc1nc(Nc2cc(C#N)cc(N3CC[C@@H](NC(=O)OC)C(=O)C3)c2Cl)nn2c(C#N)cnc12 [Example 740, (R)-methyl (1-(2-chloro-5-cyano-3-((7-cyano-4-(ethylamino)imidazo[2,1-f][1,2,4]triazin-2-yl)amino)phenyl)-3-oxopiperidin-4-yl)carbamate] |
| 14.1 nM | CCNc1nc(Nc2cc(C#N)cc(N3CC[C@@H](NC(=O)OC)C(N(C)C[C@H](O)CO)C3)c2Cl)nn2c(C#N)cnc12 (stereo partly drawn) [Example 772, methyl N-[(4R)-1-(2-chloro-5-cyano-3-{[7-cyano-4-(ethylamino)imidazo[2,1-f][1,2,4]triazin-2-yl]amino}phenyl)-3-{[(2S)-2,3-dihydroxypropyl](methyl)amino}piperidin-4-yl]carbamate] |
| 1.62 nM | CCNc1nc(Nc2cc(C#N)cc(N3CC[C@@H](NC(=O)OC)[C@@H](NC4COC4)C3)c2Cl)nn2c(C#N)cnc12 [Example 747, methyl ((3S,4R)-1-(2-chloro-5-cyano-3-((7-cyano-4-(ethylamino)imidazo[2,1-f][1,2,4]triazin-2-yl)amino)phenyl)-3-(oxetan-3-ylamino)piperidin-4-yl)carbamate] |
| 1.66 nM | CCNc1nc(Nc2cc(C#N)cc(N3CCC4(CCN(C(C)=O)C4)CC3)c2Cl)nn2c(C#N)cnc12 [Example 787, 2-((3-(2-acetyl-2,8-diazaspiro[4.5]decan-8-yl)-2-chloro-5-cyanophenyl)amino)-4-(ethylamino)imidazo[2,1-f][1,2,4]triazine-7-carbonitrile] |

Reference: patent publication US9273057B2 (Bristol-Myers Squibb Company, priority 2012, dated 2016)
